Series [1] has as its system adenosine release, rat cardiomyocytes. Particulars: cited from earlier work.
In series [2] the test system is adenosine release, isolated guinea pig hearts. As to conditions: cited from earlier work.
For another series, the system named is TNF-α. Put plainly: Inhibition of TNF-alpha production in endotoxemic mice (ELISA). It is filed as in vivo, Balb/C mice. As to conditions: 200 mg/kg i.p. 30 minutes prior to LPS and GP-1-515. As for the experimental part: In these experiments, plasma TNF-α levels were measured in GP-1-515and placebo-treated mice (8 animals per group). Balb/C mice received an intravenous injection of E. coli LPS (900 ug/animal) (Sigma Chemical Co.) followed immediately by a second injection with 0.1 mg/kg of GP-1-515 or vehicle. Some animals were pretreated with an intraperitoneal injection of the adenosine receptor antagonist 8SPT. One hour later, blood was obtained from ether anesthetized animals by intracardiac puncture using a heparinized syringe. Blood samples were chilled on ice, centrifuged at 5000 rpm in a microcentrifuge for 5 minutes, and the plasma removed. TNF-α levels in the plasma were assayed by ELISA according to the instructions provided by the manufacturer (Endogen, Cambridge, Mass.).
(ELISA stands for enzyme-linked immunosorbent assay.)

A further series has as its system E. coli LPS endotoxemia. Put plainly: Survival in endotoxemia (E. coli LPS) in mice. It is filed as in vivo, Balb/C mice. As to conditions: 200 mg/kg i.p. 30 minutes prior to LPS and drug. The source says:
An adenosine kinase inhibitor (GP-1-515) was used to increase endogenous adenosine production in vivo.

Series [3] can be described thus: Acute i.v. hemodynamics in the rat. It is filed as in vivo, Sprague Dawley rats. As for the experimental part: The ability of the adenosine kinase inhibitor GP-1-238 to show effects on blood pressure, heart rate or body temperature was compared in anesthetized and conscious rats. Sprague Dawley rats were anesthetized with pentobarbital and catheterized in the jugular vein and carotid artery. GP-1-238 (0.1-5 mg/kg/min) was infused intravenously in stepwise increments (0.2 mL/min×5 minutes). The experiments in conscious rats were conducted in the same manner after rats had been catheterized and allowed to recover for 2 days following surgery.

For a further series, the system named is cardiac adenosine kinase. Kind of series: Inhibition of cardiac adenosine kinase in vivo. Particulars: conscious rats, i.v.
Series [4] concerns fMLP-stimulated human neutrophils on human umbilical vein endothelial cells. Put plainly: Inhibition of neutrophil adherence to endothelial cells. It is filed as cell-based. As to conditions: for inhibition of neutrophil adhesion to endothelial cells: fMLP-stimulated neutrophils, 2 hours, 37° C.; for effect of adenosine deaminase co-treatment on inhibition of neutrophil adhesion: with adenosine deaminase 0.125 U/mL. As for the experimental part: The ability of an adenosine kinase inhibitor to affect neutrophil adherence to fibroblasts and endothelial cells was evaluated in a cell culture model. […] These incubations were carried out in the presence of fMLP-stimulated human neutrophils isolated from whole blood (1.25×10^6/mL) with or without adenosine deaminase (0.125 U/mL). At the end of the incubation, the medium was removed and the monolayers of fibroblasts or endothelial cells and adherent neutrophils were fixed by addition of formaldehyde (3.7%) and, after washing to remove non-adherent neutrophils, adherent neutrophils were stained with Weigart's hematoxylin and counted under a light microscope.

The conditions of series [5]: mouse, in vivo; cited from earlier work.
In series [6] the test system is adenosine uptake, rat brain slices. As to conditions: cited from earlier work.
Series [7] has as its system adenosine uptake, guinea pig brain slices. As to conditions: cited from earlier work.
The conditions of series [8]: cited from earlier work.
The test system of series [9] is Mycobacterium butyricum adjuvant arthritis. Kind of series: Adjuvant arthritis in rats. It is filed as in vivo, Lewis rats. How it is done: Lewis rats received a single subcutaneous tail injection of 0.75 mg Mycobacterium butyricum mixed in paraffin oil on day 0. […] Hind paw volume was measured by Mercury displacement.
A further series deals with T1, adenosine kinase (Bos taurus, UniProt A0AAA9RZ79).
T1 construct: endogenous in cells; host or cells: capillary endothelial cells from bovine heart
Put plainly: Adenosine kinase inhibition in intact cells (capillary endothelial cells from bovine heart). It is filed as cell-based. As to conditions: 20 μM 2'-deoxycoformycin, 5 μM [3H]adenosine. How it is done:
Inhibition of adenosine kinase in intact cells was determined from the amount of incorporation of radioisotope from adenosine into the adenylates (AMP, ADP and ATP) in the presence of adenosine deaminase inhibition. […] The media was then discarded and the cells were treated with 50 μl 0.4M perchloric acid, centrifuged and the supernalants neutralized with 100 μl alanine: freon (1:4).

For series [10], the target named is T2, purified pig heart adenosine kinase (Sus scrofa, UniProt A0A5G2R0F5).
T2 construct: purified pig heart adenosine kinase; from tissue; host or cells: pig heart
Kind of series: Inhibition of adenosine kinase activity (purified pig heart enzyme). It is filed as biochemical. How it is done:
Inhibition of enzyme activity was determined using a 0.1 mL assay mixture containing 50 mM Tris-maleate, pH 7.0, 0.1% (w/v) BSA, 1 mM ATP, 1 mM MgCl2, 0.5 μM [U-^14 C]adenosine (500 mCi/mmol) and 0.1 μg of purified pig heart adenosine kinase. Different concentrations of the test compounds were incubated in the assay mixture for 20 min. at 37° C. From each reaction mixture, 20 μl portions were removed and spotted on 2 cm^2 pieces of Whatman DE81 filter paper. […] The papers were dried, and [^14 C]AMP measured by scintillation counting.

[11] abbreviates: conscious animals, doses greatly in excess of that required to inhibit cardiac adenosine kinase.

Molecules are shown by their SMILES. “Also recorded” adds a separate entry of the source.

T1 sequence (A0AAA9RZ79 1-362): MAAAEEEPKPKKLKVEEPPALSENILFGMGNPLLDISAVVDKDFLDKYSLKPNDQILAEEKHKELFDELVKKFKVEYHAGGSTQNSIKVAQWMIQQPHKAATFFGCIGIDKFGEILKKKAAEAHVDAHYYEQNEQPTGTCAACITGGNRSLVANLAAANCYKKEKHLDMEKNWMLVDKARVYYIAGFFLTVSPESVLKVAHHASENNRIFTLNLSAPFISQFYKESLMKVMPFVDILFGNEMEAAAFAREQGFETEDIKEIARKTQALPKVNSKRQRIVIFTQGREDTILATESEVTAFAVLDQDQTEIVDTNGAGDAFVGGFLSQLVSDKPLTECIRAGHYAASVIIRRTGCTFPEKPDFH
T2 sequence (A0A5G2R0F5 1-362): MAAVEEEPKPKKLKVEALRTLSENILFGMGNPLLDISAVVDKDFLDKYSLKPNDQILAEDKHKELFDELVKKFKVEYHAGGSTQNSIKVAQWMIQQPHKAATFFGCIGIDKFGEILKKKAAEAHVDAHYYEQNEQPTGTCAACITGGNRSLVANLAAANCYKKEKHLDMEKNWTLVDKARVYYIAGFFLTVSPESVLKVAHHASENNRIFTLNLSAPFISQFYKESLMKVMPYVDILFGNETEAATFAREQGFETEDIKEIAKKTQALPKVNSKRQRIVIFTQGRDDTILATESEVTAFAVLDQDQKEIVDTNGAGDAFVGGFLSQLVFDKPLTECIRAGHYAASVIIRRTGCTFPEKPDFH

Take `OC[C@H]1O[C@@H](n2cnc3c2N=CNC[C@H]3O)C[C@@H]1O` [2'-deoxycoformycin]: in [1] (ADA inhibition alone), the “adenosine release from rat cardiomyocytes” value is reported as “no effect on adenosine release”.
On to `NC[C@H]1O[C@@H](n2cnc3c(N)ncnc32)[C@H](O)[C@@H]1O` [5'-amino-5'-deoxyadenosine], for which, in series [1] (inhibition of ADA together with adenosine kinase), the “increase in adenosine release from rat cardiomyocytes” value was 6 -fold. In addition, the “adenosine release, isolated guinea pig hearts, no ADA inhibition” value in series [2] (absence of ADA inhibition) was “not apparent in the absence of ADA inhibition”. Further, the “increase of adenosine release, isolated guinea pig hearts” value in [2] (in the presence of EHNA) is recorded as 15 -fold.
In the case of `Cn1c(=O)c2[nH]c(-c3ccc(S(=O)(=O)O)cc3)nc2n(C)c1=O` [8-p-sulphophenyltheophylline, reference compound], in the series on TNF-α, the “effect on GP-1-515-induced decrease of plasma TNF-α” value is reported as “The decrease was prevented”. The “effect on GP-1-515-induced protection” value with E. coli LPS endotoxemia was “completely inhibited the protective effect of GP-1-515; also recorded: blocking the GP-1-515-induced protection”.
Regarding `NC[C@H]1O[C@@H](n2cnc3c(N)ncnc32)[C@H](O)[C@@H]1O` [GP-1-238], in [3] (setting [11]), the “effect on blood pressure, conscious animals” value is reported as “No effects were observed”; the “effect on heart rate, conscious animals” value is “No effects were observed”; the “effect on temperature, conscious animals” value is “No effects were observed”. In addition, in series [3] (i.v. infusion 0.1-5 mg/kg/min, conscious rats, in contrast to anesthetized animals), the “hemodynamic effects, conscious rats” value is “no hemodynamic effects were seen”. For the same molecule, in the series with cardiac adenosine kinase, the “inhibition of adenosine kinase in vivo” value is recorded as “completely inhibited adenosine kinase in vivo”.
As to `CNc1ncnc2c1ncn2[C@@H]1O[C@H](CN)[C@@H](O)[C@H]1O` [GP-1-272], in [4], the “inhibition of neutrophil adhesion to endothelial cells” value is listed as “inhibit neutrophil adhesion to endothelial cells; also recorded: dose-dependent inhibition” and the “effect of adenosine deaminase co-treatment on inhibition of neutrophil adhesion” value is “reversed by adenosine deaminase treatment; also recorded: reversal of this inhibition”.
Regarding `C[C@H]1O[C@@H](n2cc(I)c3c(N)ncnc32)[C@H](O)[C@@H]1O` [GP-1-456, 5'-deoxy-5-iodotubercidin], in [5], the “body temperature in mice” value is on record as “hypothermia”; the “flaccidity and locomotor activity in mice” value is “pronounced general flaccidity and much-reduced spontaneous locomotor activity”. For the same molecule, the “adenosine uptake, rat brain slices” value in [6] is “inhibited”. Moreover, the “adenosine uptake, guinea pig brain slices” value in [7] is reported as “inhibited”. Moreover, in series [4], the “inhibition of neutrophil adhesion to endothelial cells” value is reported as “inhibit neutrophil adhesion to endothelial cells; also recorded: dose-dependent inhibition” and the “effect of adenosine deaminase co-treatment on inhibition of neutrophil adhesion” value is reported as “reversed by adenosine deaminase treatment; also recorded: reversal of this inhibition”. Moreover, the “blood pressure and heart rate in anesthetized rats” value in series [8] is “decrease blood pressure and heart rate”. Besides, the “reduction of hind paw edema” value in series [9] (3 mg/kg p.o.) is on record as “significant reduction of hind paw edema”. The “total mean hind paw edema” value in [9] (3 mg/kg p.o. day 1 through 19, day 19, untreated 2.55±0.20, p<0.05) was found to be 1.41 ± 0.21 mL.
Consider `C[C@H]1O[C@@H](n2nc(-c3ccccc3)c3c(Nc4ccccc4)ncnc32)[C@H](O)[C@@H]1O` [GP-1-665], for which the midpoint of inhibition against adenosine kinase, the IC50, lay at 4.5 nM.
Molecule `OC[C@H]1O[C@@H](n2cc(-c3ccco3)c3c(Nc4ccccc4)ncnc32)[C@H](O)[C@@H]1O` [GP-1-718] registered an IC50 in series [10] below 10 nM.

As a reminder, the IC50 is the concentration that gives 50% inhibition. A higher IC50 goes with weaker potency.
